Results on four compounds are retold here after patent US5658886A, “Acridinone derivative, compositions containing same and a method for using same to treat Chlamydia trachomatis” (Limited Liability Partnership "POLYSAN", priority 1993, dated 1997).

Data set [1] deals with C trachomatis. The note with it: 100 mg/kg daily for 5 days.
Method: Experiments were performed involving C trachomatis infection of non-line whim mice weighing 16-18 grams. […] Alternatively, a single tetracycline hydrochloride injection (100 mg/kg) was administered on conventional schedule for 5 days.
Therapeutic effectiveness was evaluated by cytoscopic examination of stained smears from lymph nodes and the lung for pathogenic multiplication.
The test system of data set [2] is human immunodeficiency virus (HIV). The note with it: 0.08 mg/ml.
Method: The cells were grown at the Russian Medical University (RMU) in tube medium--1640 containing 20% calf foetal serum at end concentration of 0.5-0.7×10^6 cells/ml. […] The cells were then incubated for 3-4 days at 37° C. with subsequent replacement of nutrient medium. On the fifth and seventh day after infection, the presence of virus-specific antigen was established through indirect immunofluorescence assay using anti-HIV antibodies.
In data set [3] the test system is ristal-strain mongrel white mice. The data set is described as follows: in vivo. As for the experimental part: (§1) Intravenous and intramuscular injections were given of 2000 mg/kg and less in two stages. The follow-up period was 14 days. The lethal dose (LD50) was calculated by the Kerber technique. […] 31, 1987.
Data set [4] is described as follows: in vivo. The note with it: mouse, in vivo. The method, then: as §1
Data set [5] deals with interferon. The experiment in a line: Interferon-inducing activity in mice (titers in blood). Type of data set: in vivo, BALB mice. To be noted: for Interferon titer: dose (mg/kg): cycloferone 200, thylorone 50, prototype 400-600. As for the experimental part: At predetermined time intervals interferon titers were measured in the blood by conventional techniques on homologous cells […] grown in 96-well plates in a CO2 -containing incubator. The test-virus was the encephalomyocarditis virus.

Data set [6] has as its system Peripheral-blood lymphocytes. The experiment in a line: Interferon induction in cell culture, peripheral-blood lymphocytes. Type of data set: cell-based, BALB mice. The source says:
(§2) The initial concentration was 5×10^6 cells/milliliter. The dynamics of interferon accumulation were studied in the cultural fluid of the lymphocytes grown on plastic plates in the presence of CO2.

The test system of data set [7] is Splenocytes. The experiment in a line: Interferon induction in cell culture, splenocytes. The class given is cell-based, BALB mice.
Text: as §2

Data set [8] concerns B-lymphocytes. The experiment in a line: Interferon induction in cell culture, B-lymphocytes. Type of data set: cell-based, BALB mice.
Text: as §2

Data set [9] has as its system hepatocytes (liver). The experiment in a line: Anti-promotive activity: hepatocytic cohesion. Type of data set: in vivo, BALB/c mice. As for the experimental part: Studies were performed on female BALB/c mice weighing 25.0 grams.
The compounds were administered daily for 6 days in optimal doses. Controls were given physiological solution. Six hours after the last injection the animals were sacrificed. Sections of the lung and liver were cut out, submerged in 199 medium, and cellular cohesion was measured. Measurements were performed with a micro-manipulator by modified Kuman technique. See Modianova E. A., Voprosy onkologii, 19(6): 83-88 (1973).
For each experimental point, cellular cohesion was measured in 4-5 mice. One tissue segment from each of the mice measuring 10-30 cells was examined.

The subject of data set [10] is T-lymphocytes. The experiment in a line: Interferon induction in cell culture, T-lymphocytes. Type of data set: cell-based, BALB mice.
Text: as §2

Structures can show the parent of a compound that is named as a salt. Where two headings read alike, the source gives them in different places.

`CN(C)C1C(=O)C(C(N)=O)=C(O)C2(O)C(=O)C3=C(O)c4c(O)cccc4C(C)(O)C3CC12` (stereo not shown) [Tetracycline hydrochloride, tetracycline hydrochloride]: the “Effectiveness Index” value in [1] (lung, 3 days) was 1.8; in data set [1] (lung, 7 days), 1.0; in [1] (lymph nodes, 3 days) it was 0.9; in data set [1] (lymph nodes, 7 days), 0.6.

Regarding `Cc1cn([C@H]2C[C@H](N=[N+]=[N-])[C@@H](CO)O2)c(=O)[nH]c1=O` [Azidothymidine, azidothymidine], the “Number of cells containing HIV antigen by IIFR” value came out at 6.5% in [2] (Day 5) and 4.7% in [2] (Day 7).

The LD50 is the dose expected to kill half of the subjects tested. A lower LD50 goes with greater toxicity. For the compound `CN(C)CCOC(=O)Cn1c2ccccc2c(=O)c2ccccc21` [10-carboxymethyl-9-acridone dimethyl-aminoethylether chlorhydrate], the “toxicity upon parenteral application” value in data set [3] (parenteral) was “low-toxicity”. The “level of toxicity compared to the compound of the present invention” value in data set [3] (words, vs cycloferone) is given as “same level of toxicity”. Besides, the figures for the LD50 at 336 h in data set [4] (im) and in [4] (iv) were 600 mg/kg and 400 mg/kg, respectively. The Interferon titer in data set [5] (2 hours) is 100 IU/ml; in data set [5] (4 hours), 1000 IU/ml. For the same compound, the “interferonogenic activity compared to the compound of the present invention” value in data set [5] (words, vs cycloferone) is reported as “lower interferonogenic activity”.

Take `CCN(CC)CCOc1ccc2c(c1)C(=O)c1cc(OCCN(CC)CC)ccc1-2` [Thylorone]: the Interferon titer is 40 in data set [6] (24 hr); 80 in data set [6] (48 hr); 320 in data set [6] (72 hr); 80 in [6] (96 hr); 10 in data set [6] (120 hr); less than 10 in data set [6] (144 hr). In addition, the Interferon titer was 15 in data set [7] (24 hr); 30 in data set [7] (48 hr); 640 in data set [7] (72 hr); 320 in data set [7] (96 hr); 15 in [7] (120 hr); less than 5 in data set [7] (144 hr). Moreover, the Interferon titer in data set [8] (24 hr) is on record as 15; in data set [8] (48 hr) it was 30; in [8] (72 hr), 320; in [8] (96 hr), less than 10; in data set [8] (120 hr), less than 10; in data set [8] (144 hr), 5. Further, the Interferon titer in [10] (24 hr) is on record as 15; in data set [10] (48 hr), 60; in data set [10] (72 hr) it was 5000; in data set [10] (96 hr) it was 3600; in data set [10] (120 hr), 960; in data set [10] (144 hr) it was 5. The Interferon titer in data set [5] (1 hour) is recorded as less than 40 IU/ml; in data set [5] (2 hours), less than 40 IU/ml; in [5] (4 hours), less than 40 IU/ml; in data set [5] (8 hours), 40 IU/ml; in data set [5] (18 hours), 640 IU/ml; in data set [5] (24 hours), 20 IU/ml. For the same compound, the Interferon titer in data set [5] (48 hours) is reported as less than 10 IU/ml. Further, the “Hepatocytic Cohesion” value in [9] (Intraperitoneal, 10.0 mg/kg, P >0.05) is 0.053 ± 0.008 mg/1 cell. Further, in [9] (words, vs controls), the “hepatocytic cohesion indices compared to controls” value is on record as “the same as in the controls”.
